Data on three substances can be found in patent publication US20030110518A1, “Melanocortin-5 receptor sequences and uses thereof” (priority 2001, published 2003).

In assay [1] the target is T1, canine MC5R (Canis lupus familiaris, UniProt A0A8I3MI44). As to the kind of experiment: Whole cell binding assay with radiolabeled NDP-MSH in transfected HEK293a cells. On the set-up: expressed in transfected cells; host or cells: HEK293 / HEK293a. Particulars: 75 pM label, 37° C., 1 hour; clones nos. 9 and 13; FIG. 5.
Method: Transient transfection & Whole Cell Binding Assay. A 50% confluent cell culture plate containing HEK293 cells is used for transient transfection with various vector constructs using Fugene 6 as a transfection carrier (4 μl Fugene 6 per μg plasmid DNA). Cells are harvested 48 hours post transfection using Sigma dissociation buffer (Sigma Chemical Co., St. Louis, Mo.), then centrifuged and resuspended in binding buffer (50 mM HEPES, 5 mM MgCl, 0.1% BSA, pH 7.5, containing a Sigma P-8340 protease inhibitor cocktail). The resuspended cell population is counted using a hemacytometer. A cell volume titration is performed by pipetting varying volumes in triplicate into tubes. Either buffer or excess cold NDP-MSH (2 μM final conc.) is added. Excess cold NDP-MSH is used to ascertain non-specific binding. Radiolabeled (^125I) NDP-MSH is added such that the final concentration is 75 pM. The reaction is incubated at 37° C. for 1 hour, and then the reaction mixture is centrifuged at 5000×g for 10 minutes. The supernatant solution is removed by aspiration and radioisotope remaining with the cell pellet is counted in a gamma counter. FIG. 5 discloses the specific NDP-MSH binding to five canine MC5R/HEK293a cells (shown as “C5#_” in FIG. 5).
Assay [2] addresses canine melanocortin 5 receptor (canine). As to the kind of experiment: cell-based or functional assay.
Assay [3] has as its target T1, canine MC5R.
Method: The following example discloses the measurement of canine MC5R-mediated cAMP accumulation in response to α-MSH stimulation.
As described above, MC5R, when activated by its agonist ligand, stimulates adenylyl cyclase to form cAMP. A commercially available kit (Adenylyl Cyclase Activation Flashplate Assay, NEN® Life Science Products, Inc., Boston, Mass., Cat # SMP004, SMP004A) is used to measure cAMP accumulation. An MC5R/HEK293 cell line is prepared. Cells are harvested using Sigma dissociation buffer, washed, centrifuged and resuspended in stimulation buffer, which is provided in the kit (Sigma Chemical Co., St. Louis, Mo.). The suspended cells are counted using a hemacytometer. Cells are pelleted again by centrifugation and resuspended with stimulation buffer to the desired concentration (0.5-5×10^6 cells per ml). A cell volume titration is performed by transferring varying volumes in triplicate into wells. For each cell concentration tested, a full agonist dose titration is performed, including a negative control. The agonists employed include [Nle^4,D-Phe^7]-α-MSH(NDP-MSH) and α-MSH. […]
The duration of stimulation by agonist is also varied (15-45 minutes). […] Stimulation of MC5R is determined by scillintation counting in a Wallac MICROBETA® scintillation counter (EG&G Wallac, Gaithersburg, Md.).

Some results are limits rather than exact numbers.

T1 sequence (A0A8I3MI44 1-325): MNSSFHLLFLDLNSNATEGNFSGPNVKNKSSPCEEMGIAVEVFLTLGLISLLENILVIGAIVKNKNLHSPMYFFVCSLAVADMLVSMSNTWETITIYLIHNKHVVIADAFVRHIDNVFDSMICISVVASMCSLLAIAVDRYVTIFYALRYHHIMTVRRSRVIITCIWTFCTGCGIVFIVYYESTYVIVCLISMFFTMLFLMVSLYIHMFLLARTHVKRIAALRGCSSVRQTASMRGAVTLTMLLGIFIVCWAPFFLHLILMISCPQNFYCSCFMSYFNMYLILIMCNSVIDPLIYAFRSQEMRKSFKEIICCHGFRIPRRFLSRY
canine melanocortin 5 receptor (canine), sequence (chain, as listed by the source limits assumed): as the sequence (A0A8I3MI44 1-325) above, with H100Y, G314A counted along it

Regarding [Nle4,D-Phe7]-α-MSH [NDP-MSH], the “specific binding of radiolabeled (125I) NDP-MSH to canine MC5R/HEK293a cells” value at canine MC5R [1] is “high level of specific binding”.
In assay [2], “α-melanocyte stimulating hormone (from UniProt P01189 138-150) (peptide)” returned an EC50 of cAMP accumulation (Adenylyl Cyclase Activation Flashplate Assay), clone C9 of 5 nM and a fold stimulation of cAMP accumulation of under 8 fold.
Consider “α-melanocyte stimulating hormone [α-MSH]”, for which the “sensitivity of MC5R clones to α-MSH compared with a MC4R clone” value on canine MC5R [3] (both MC5R clones versus a MC4R clone) was “more sensitive”. Moreover, the “stimulation of cAMP accumulation with α-MSH” value at canine MC5R [3] (three clones, FIG. 6) is reported as at most 8 fold.
